Measurements as given in ChEMBL document CHEMBL1201862, “PubChem BioAssay data set” (2004).
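Where inhibition never reached the appropriate level, the endpoint shown equals the highest concentration tested. Otherwise, values were interpolated linearly from a five-concentration, 48-hour dose response in 96-well plates. At the GI50, growth is halved.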 Active and inactive are the calls of the source. Rule as the data show it: active = GI50 up to about 1.1 µM and inactive = higher.

What was measured:
Experiment in all cases: NCI anticancer screen, dose series, 48 h
U-251 = test system: U-251
SK-MEL-2 = test system: SK-MEL-2
EKVX = test system: EKVX
IGROV-1 = test system: IGROV-1
SR = test system: SR
786-0 = test system: 786-0
M14 = test system: M14
SW-620 = test system: SW-620
NCI/ADR-RES = test system: NCI/ADR-RES
NCI-H23 = test system: NCI-H23
HL-60 = test system: HL-60
HOP-62 = test system: HOP-62
UO-31 = test system: UO-31
SNB-19 = test system: SNB-19
NCI-H226 = test system: NCI-H226
A549 = test system: A549
COLO 205 = test system: COLO 205
MDA-MB-435 = test system: MDA-MB-435
MDA-N = test system: MDA-N

| SMILES | GI50 (U-251) | GI50 (SK-MEL-2) | GI50 (EKVX) | GI50 (IGROV-1) | GI50 (SR) | GI50 (786-0) | GI50 (M14) | GI50 (SW-620) | GI50 (NCI/ADR-RES) | GI50 (NCI-H23) | GI50 (HL-60) | GI50 (HOP-62) | GI50 (UO-31) | GI50 (SNB-19) | GI50 (NCI-H226) | GI50 (A549) | GI50 (COLO 205) | GI50 (MDA-MB-435) | GI50 (MDA-N) |
| --- | --- | --- | --- | --- | --- | --- | --- | --- | --- | --- | --- | --- | --- | --- | --- | --- | --- | --- | --- |
| COc1ccc2nc3ccccc3c(NCCCCN(CCCl)CCCl)c2c1 | 0.0752 µM (active) | 0.703 µM (active) | 0.535 µM (active) | 0.227 µM (active) | 0.04 µM (active) | 0.0436 µM (active) | 0.22 µM (active) | 0.0188 µM (active) | 0.448 µM (active) | 0.147 µM (active) | 0.0186 µM (active) | 0.655 µM (active) | 0.443 µM (active) | 0.783 µM (active) | 0.368 µM (active) | 0.162 µM (active) | 0.368 µM (active) | 0.323 µM (active) | – |
| CCOC(=O)CC(=O)N(c1ccc(OC)cc1)C(C(=O)OC)c1ccccc1 (configuration not stated) | – | > 100 µM (inactive) | > 100 µM (inactive) | > 100 µM (inactive) | > 100 µM (inactive) | > 100 µM (inactive) | > 100 µM (inactive) | > 100 µM (inactive) | > 100 µM (inactive) | > 100 µM (inactive) | – | > 100 µM (inactive) | 96.2 µM (inactive) | > 100 µM (inactive) | – | > 100 µM (inactive) | > 100 µM (inactive) | > 100 µM (inactive) | > 100 µM (inactive) |
| CCOC(=O)c1cnc2oc3ccc(O)cc3c2c1-c1ccccc1 | 44.8 µM (inactive) | 15.1 µM (inactive) | 57.3 µM (inactive) | – | 22.6 µM (inactive) | 58.3 µM (inactive) | 81.3 µM (inactive) | > 100 µM (inactive) | – | 32.7 µM (inactive) | 14.6 µM (inactive) | – | – | 52.4 µM (inactive) | 32.2 µM (inactive) | 32.4 µM (inactive) | 28.5 µM (inactive) | 19.2 µM (inactive) | 52.7 µM (inactive) |
| CC(=O)Oc1c(C)cc2c(c1C)C(C)(C)CN2C(=O)C(C)(C)C | > 100 µM (inactive) | > 100 µM (inactive) | > 100 µM (inactive) | > 100 µM (inactive) | – | > 100 µM (inactive) | 65.9 µM (inactive) | > 100 µM (inactive) | 45.3 µM (inactive) | 81.1 µM (inactive) | 63.8 µM (inactive) | > 100 µM (inactive) | 41.8 µM (inactive) | > 100 µM (inactive) | 38.5 µM (inactive) | 83.8 µM (inactive) | 58.1 µM (inactive) | 77.8 µM (inactive) | > 100 µM (inactive) |
| CN(C)C(=S)Nc1nnc(NC23CC4CC(CC(C4)C2)C3)s1.[O-][Cl+3]([O-])([O-])O | 12.2 µM (inactive) | 18.5 µM (inactive) | 23 µM (inactive) | 30.1 µM (inactive) | 15.9 µM (inactive) | 16.6 µM (inactive) | 16 µM (inactive) | 16.7 µM (inactive) | – | 10 µM (inactive) | 7.57 µM (inactive) | 18.6 µM (inactive) | 12.4 µM (inactive) | 18.3 µM (inactive) | 19.4 µM (inactive) | 12.4 µM (inactive) | 19.8 µM (inactive) | – | – |
| CC1=C2C(=CC(C)(C)C2O)C(=O)C(C)(O)C12CC2 (configuration not stated) | 0.0059 µM (active) | 0.0121 µM (active) | 0.0356 µM (active) | 0.0153 µM (active) | 0.00249 µM (active) | 0.00759 µM (active) | 0.0158 µM (active) | 0.00305 µM (active) | – | 0.00681 µM (active) | 0.00345 µM (active) | 0.0119 µM (active) | 0.0127 µM (active) | 0.019 µM (active) | 0.033 µM (active) | 0.0135 µM (active) | 0.0138 µM (active) | – | – |
| C[C@@H](c1ccccc1)N(CC#N)[C@H]1CCC[C@]1(O)/C=C/c1ccc2c(c1)OCO2 | > 25 µM (inactive) | > 25 µM (inactive) | > 25 µM (inactive) | > 25 µM (inactive) | > 25 µM (inactive) | > 25 µM (inactive) | > 25 µM (inactive) | – | > 25 µM (inactive) | > 25 µM (inactive) | > 25 µM (inactive) | > 25 µM (inactive) | > 25 µM (inactive) | > 25 µM (inactive) | > 25 µM (inactive) | > 25 µM (inactive) | > 25 µM (inactive) | > 25 µM (inactive) | > 25 µM (inactive) |
